What was measured:
Experiment in all cases: relative viability (nuclei count vs DMSO), 5 days (fraction); higher = more cells survive
[1] = tested on: NCI-H1703
How it was run: (§1)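 Lung cancer cell lines were seeded in 1536-well plates and dosed by pin tool the next day, with either a single drug or a fixed anchor-drug dose combined with five library-drug doses (not always all listed) spaced in √10 steps. Five days later, one step fixed the cells and stained their nuclei (final 0.05% Triton X-100, 1% formaldehyde, 1 ug/ml Hoechst), and nuclei were counted on 4× images. Relative viability is the nuclei count in treated wells divided by the count in vehicle wells, and each value is the median of duplicate plates.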

[2] = tested on: IA-LM
How it was run: as §1

[3] = tested on: A549
How it was run: as §1

[4] = tested on: Calu-6
How it was run: as §1

[5] = tested on: NCI-H1299
How it was run: as §1

[6] = tested on: EBC-1
How it was run: as §1

[7] = tested on: NCI-H1563
How it was run: as §1

SMILES | relative viability ([1]; first compound 5 µM) | relative viability ([1]; first compound 15.81 µM) | relative viability ([1]; first compound 50 µM) | relative viability ([1]; first compound 158.11 µM) | relative viability ([1]; first compound 500 µM) | relative viability ([2]; first compound 5 µM) | relative viability ([2]; first compound 15.81 µM) | relative viability ([2]; first compound 50 µM) | relative viability ([2]; first compound 158.11 µM) | relative viability ([2]; first compound 500 µM) | relative viability ([3]; first compound 5 µM) | relative viability ([3]; first compound 15.81 µM) | relative viability ([3]; first compound 50 µM) | relative viability ([3]; first compound 158.11 µM) | relative viability ([3]; first compound 500 µM) | relative viability ([4]; first compound 5 µM) | relative viability ([4]; first compound 15.81 µM) | relative viability ([4]; first compound 50 µM) | relative viability ([4]; first compound 158.11 µM) | relative viability ([4]; first compound 500 µM) | relative viability ([5]; first compound 5 µM) | relative viability ([5]; first compound 15.81 µM) | relative viability ([5]; first compound 50 µM) | relative viability ([5]; first compound 158.11 µM) | relative viability ([5]; first compound 500 µM) | relative viability ([6]; first compound 5 µM) | relative viability ([6]; first compound 15.81 µM) | relative viability ([6]; first compound 50 µM) | relative viability ([6]; first compound 158.11 µM) | relative viability ([6]; first compound 500 µM) | relative viability ([7]; first compound 5 µM) | relative viability ([7]; first compound 15.81 µM) | relative viability ([7]; first compound 50 µM) | relative viability ([7]; first compound 158.11 µM) | relative viability ([7]; first compound 500 µM)
O=C(O)CCCCC(CCSCc1ccccc1)SCc1ccccc1 (stereo not given) [CPI-613] + CS(=O)(=O)N1CCN(Cc2cc3nc(-c4cccc5[nH]ncc45)nc(N4CCOCC4)c3s2)CC1 [Pictilisib] (partner 1 µM) | 0.25 | 0.264 | 0.27 | 0.213 | 0.115 | 0.294 | 0.307 | 0.238 | 0.0746 | 0.0098 | 0.491 | 0.414 | 0.39 | 0.127 | 0.0559 | 0.938 | 0.811 | 0.754 | 0.446 | 0.111 | 0.789 | 0.756 | 0.785 | 0.404 | 0.106 | 0.391 | 0.37 | 0.362 | 0.206 | 0.0773 | 0.657 | 0.597 | 0.623 | 0.513 | 0.193
O=C(O)CCCCC(CCSCc1ccccc1)SCc1ccccc1 (stereo not given) [CPI-613] + C[C@@H](Oc1cc(-c2cnn(C3CCNCC3)c2)cnc1N)c1c(Cl)ccc(F)c1Cl [Crizotinib] (partner 1 µM) | 0.582 | 0.487 | 0.531 | 0.31 | 0.284 | 0.584 | 0.549 | 0.621 | 0.454 | 0.22 | 0.738 | 0.595 | 0.526 | 0.191 | 0.145 | 0.802 | 0.622 | 0.741 | 0.556 | 0.346 | 0.926 | 0.942 | 0.944 | 0.889 | 0.861 | 0.179 | 0.198 | 0.197 | 0.133 | 0.167 | 0.834 | 0.877 | 0.857 | 0.477 | 0.211

Reference: the supplement of paper PMC10307832
